“Also recorded” adds a separate entry of the source.
Key:
[1] = tested on: neutrophil extracellular trap (NET) formation; assay: In vitro NET formation by stimulated human PMNs (live cell imaging, NET-associated histone H3 release); assay type: cell-based; conditions: for NET formation triggered by LPS: adult PMNs preincubated with agent, LPS 100 ng/mL, 1 hour
Method: Qualitative assessment of NET formation was performed as previously reported (see Yost C C, et al., Blood. 2009; 113 (25):6419-27 and McInturff A M, et al., Blood. 2012; 120 (15):3118-25). Briefly, primary PMNs isolated from preterm infants, healthy term infants, and healthy adults (2×10^6 cells/mL) were incubated with control buffer or stimulated with indicated agonists or bacteria for 1 hour at 37° C. in 5% CO2/95% air on glass coverslips coated with poly-L-lysine. For selected experiments, primary PMNs were pre-incubated with autologous plasma, cord blood plasma, nNIF (0.2-70 nM), CRISPP (0.2-70 nM), nNIF-SCR (1 nM), or CRISPP-SCR (1 nM) for one hour prior to stimulation. After pre-incubation and/or stimulation, PMNs were gently washed with PBS and incubated with a mixture of cell permeable (SYTO® Green, MOLECULAR PROBES®) and impermeable (SYTOX® Orange, MOLECULAR PROBES®) DNA fluorescent dyes. Confocal microscopy was accomplished using a FV1000 IX81 confocal microscope and FLUOVIEW™ software (OLYMPUS™). Both 20× and 60× objectives were used. Z-series images were obtained at a step size of 1 μm over a range of 20 μm for each field. FLUOVIEW™ and ADOBE™ PHOTOSHOP™ CS2 software was used for image processing.
Using BSL 2 safety protocols, primary PMNs isolated from healthy adults (2×10^6 cells/mL) were incubated with mock infection buffer or live dengue virus (M010.05) as for live cell imaging. After a 1-hour incubation, the infected PMNs were fixed with 2% p-FA for 10 minutes prior to incubation with fluorescently-labeled, cell-permeable and cell-impermeable DNA dyes, and imaged as for live cell imaging using confocal microscopy.
NET-associated histone H3 content was determined as previously described (see McInturff A M, et al., Blood. 2012; 120 (15):3118-25). After live cell imaging of control and stimulated primary PMNs (2×10^6/mL; various agonists), the cells were incubated with PBS containing DNase (40 U/mL) for 15 minutes at room temperature to break down and release NETs formed in response to stimulation. The supernatant was gently removed and centrifuged at 420×g for 5 minutes. The cell-free supernatant was then mixed 3:1 with 4× Laemmli buffer prior to western blotting. A polyclonal primary antibody against human histone H3 protein (CELL SIGNALING®) and infrared-conjugated secondary antibodies (LI-COR®) were used. Imaging and densitometry were performed on the ODYSSEY® infrared imaging system)(LI-COR®). This assay was previously validated as a surrogate for NET formation under in vitro conditions (see McInturff A M, et al., Blood. 2012; 120 (15):3118-25) as employed in the present studies.
Without being bound by any specific theory, it was hypothesized that placentally expressed HTRA1, a serine protease, regulates the formation of NET-inhibitory peptides through cleavage of AAT. To test this hypothesis, term and preterm placenta were assessed for HTRA1 expression via western blotting. HTRA1 and AAT plasma expression from term and preterm infants and adults were determined by ELISA. Bioactive (0.5 μg) or placental eluted HTRA1 was incubated with AAT (8 μM) for 18 hours at 37° C. Carboxy-terminus fragments of AAT were detected using western blotting and mass spectrometry. The reaction products were incubated for 1 hour with PMNs isolated from healthy adults prior to LPS stimulation (100 ng/mL) and assessed for NET formation using live cell imaging. Reactive oxygen species were assessed using flow cytometry, chemotaxis using a modified Boyden chamber assay, and bacterial killing using E. coli.

[2] = tested on: nuclear chromatin decondensation in PMNs; assay: Nuclear decondensation assay in PMA-treated neutrophils; assay type: cell-based, human; conditions: PMA 20 nM; peptides 1 nM, Cl-amidine 10 μM, sivelestat 200 nM
Method: FIG. 7B is a graph depicting nuclear areas that were measured (n=4) using IMAGEJ™ software (mean nuclear pixel area per cell±SEM). Paired Student's t test, *P<0.05, § P=0.057.
FIG. 12A depicts nuclear decondensation (white arrowheads and magnified image) that were assessed as in FIGS. 7A-7E after a 1 hour preincubation in medium alone, with neutrophil elastase (NE) inhibitor sivelestat (SIVL; 200 nM), or with CRISPP or CRISPP-SCR (both 1 nM) followed by treatment with PMA (20 nM) and an additional 1 hour incubation (n=3). Green fluorescence=nuclear DNA, (60× magnification, scale bar=20 μm). Nuclear area was quantified using IMAGEJ™ software (nuclear pixel area per cell±SEM). One way ANOVA with Tukey's post hoc testing; **P<0.01, ***P<0.001.
Nuclear decondensation was identified as described (see Papayannopoulos V, et al., J Cell Biol. 2010; 191 (3):677-91). Five randomly selected high-power visual fields per sample were captured via confocal microscopy and analyzed for nuclear area using the cell-permeable, fluorescent DNA dye SYTO® Green. The nuclear pixel areas of >100 individual cells per high-power field were determined using IMAGEJ™ software (NIH).

[3] = tested on: nuclear histone H3 citrullination; assay: Histone H3 citrullination in PMA-activated neutrophils (immunocytochemistry); assay type: cell-based, human; conditions: PMA 20 nM, 15 minutes; peptides 1 nM, Cl-amidine 10 μM
From the text: Green fluorescence=citrullinated-histone H3, magenta fluorescence=nuclear DNA (60× magnification; scale bar=20 μm). The right panel depicts Histone H3 citrullination that was quantified using IMAGEJ™ software (mean citrullinated-histone H3 pixel area per cell±SEM) (n=3). One way ANOVA with Tukey's post hoc testing, *P<0.05.
Imaging was accomplished via confocal microscopy using a FV1000 IX81 confocal microscope and FLUOVIEW™ software (OLYMPUS™). Semi-quantitation was accomplished using IMAGEJ™ software (NIH) to determine the average citrullinated histone H3 content per cell.

recombinant PAD4 = molecular target: T1, recombinant PAD4 (Homo sapiens, UniProt Q9UM07); assay: Cell-free PAD4 deimination assay; assay type: biochemical; conditions: initial comparison of NRPs
T1 construct: purchased CAYMAN
T1 sequence (Q9UM07 whole entry): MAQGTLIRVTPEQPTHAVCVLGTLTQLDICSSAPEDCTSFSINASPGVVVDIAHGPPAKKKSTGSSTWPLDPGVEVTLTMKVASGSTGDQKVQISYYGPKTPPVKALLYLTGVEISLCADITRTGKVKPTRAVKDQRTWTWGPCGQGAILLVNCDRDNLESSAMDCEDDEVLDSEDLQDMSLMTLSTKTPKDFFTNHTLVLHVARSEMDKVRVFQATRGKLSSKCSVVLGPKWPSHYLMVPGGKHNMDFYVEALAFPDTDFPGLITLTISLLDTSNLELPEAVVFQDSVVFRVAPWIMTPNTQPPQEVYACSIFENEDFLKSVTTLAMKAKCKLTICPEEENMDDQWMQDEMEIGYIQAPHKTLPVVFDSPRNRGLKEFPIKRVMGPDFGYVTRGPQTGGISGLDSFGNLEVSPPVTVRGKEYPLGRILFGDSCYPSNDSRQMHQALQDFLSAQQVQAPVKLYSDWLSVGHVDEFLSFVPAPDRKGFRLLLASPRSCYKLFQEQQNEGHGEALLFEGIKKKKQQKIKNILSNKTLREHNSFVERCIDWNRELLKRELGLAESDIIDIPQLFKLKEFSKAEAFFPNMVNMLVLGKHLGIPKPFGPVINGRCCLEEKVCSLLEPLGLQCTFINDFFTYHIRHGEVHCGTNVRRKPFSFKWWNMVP
Method: One way ANOVA with Tukey's post hoc testing, ***P<0.001.
nNIF inhibition of PAD4 activity was determined using a PAD4 inhibitor screening assay kit (CAYMAN™). Briefly, nNIF (1 nM) was incubated with recombinant PAD4 and PAD4 enzyme substrate (2 mM) in PAD4 assay reagent for 30 minutes at 37° C. […] The reaction was stopped with PAD4 Stop Solution and detected using an included ammonia detector assay. Ammonia detector fluorescence was measured at 470 nm following excitation at 405 nm on a SPECTRAMAX™ M5 fluorescence plate reader (MOLECULAR DEVICES™).

previously-formed NETs = assay: Post-treatment of previously formed NETs (dismantling); assay type: cell-based, human; conditions: agent added after LPS stimulation; nNIF, CRISPP 1 nM; DNase 3.78 U/mL
Method: FIG. 4A is a series of images depicting neutrophils isolated from venous blood of healthy adults that were incubated in medium alone (Control) or activated with LPS (100 ng/mL). CRISPP (1 nM) was added at 0, 30, or 60 minutes after LPS, and the presence of NETs was assessed by live cell imaging as in FIG. 1A after an additional 1 hour of incubation (20× magnification; scale bar=100 μm). The images are representative of three separate experiments.
For selected experiments, primary PMNs were pre-incubated with autologous plasma, cord blood plasma, nNIF (0.2-70 nM), CRISPP (0.2-70 nM), nNIF-SCR (1 nM), or CRISPP-SCR (1 nM) for one hour prior to stimulation. After pre-incubation and/or stimulation, PMNs were gently washed with PBS and incubated with a mixture of cell permeable (SYTO® Green, MOLECULAR PROBES®) and impermeable (SYTOX® Orange, MOLECULAR PROBES®) DNA fluorescent dyes. Confocal microscopy was accomplished using a FV1000 IX81 confocal microscope and FLUOVIEW™ software (OLYMPUS™). Both 20× and 60× objectives were used. Z-series images were obtained at a step size of 1 μm over a range of 20 μm for each field. FLUOVIEW™ and ADOBE™ PHOTOSHOP™ CS2 software was used for image processing.

neutrophil elastase (NE) = molecular target: T2, neutrophil elastase (NE) (Homo sapiens, UniProt P08246); assay: Neutrophil elastase activity assay; assay type: biochemical; conditions: in vitro; (MeOSuc)-AAPV-(pNA) 160 μM, 3 hours, 37° C., and additional assays
T2 construct: purchased SIGMA-ALDRICH
T2 sequence (P08246 30-267): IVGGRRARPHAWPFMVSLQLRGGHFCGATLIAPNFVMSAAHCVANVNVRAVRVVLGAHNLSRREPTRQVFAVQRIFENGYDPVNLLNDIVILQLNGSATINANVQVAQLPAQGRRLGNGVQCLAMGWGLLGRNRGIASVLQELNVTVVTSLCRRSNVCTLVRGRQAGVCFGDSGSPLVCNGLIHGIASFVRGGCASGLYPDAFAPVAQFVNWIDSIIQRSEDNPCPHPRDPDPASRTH
Method: FIG. 12B depicts NE enzyme activity that was examined by cleavage of the synthetic substrate (MeOSuc)-AAPV-(pNA) to (MeOSuc)-AAPV and (pNA) as products detected by liquid chromatography and chromatogram peak identification by mass spectroscopy. (MeOSuc)-AAPV-(pNA) (160 μm) was incubated with NE (2 mU), sivelestat (160 μm), or NE and sivelestat (left panel) or with NE (2 mU), nNIF ([…]), or NE and nNIF (right panel) for 3 hours at 37° C. Chromatograms are offset on the X and Y axes for ease of comparison. In the presence of NE alone, the (MeOSvc)-AAPV-(pNA) peak was almost completely eliminated and (MeOSvc)-AAPV and (pNA) peaks were generated. […] In contrast, it was not inhibited by nNIF.
Synthetic fluorogenic substrate of NE, (MeOSuc)-AAPV-(pNA) (160 μM), was incubated with bioactive NE (500 nM)±the NE inhibitor, sivelestat (160 μM) or nNIF (50 nM), for 3 hours at 37° C. The reactions were quenched with 5% glacial acetic acid and centrifuged at 14,000 rpm for 5 minutes. Chromatograms were obtained using an AGILENT™ 1100 Series HPLC and a PHENOMENEX® 5 μm C18 LUNA® column (100 Å, 4.6×150 mm) over a 30 minute 10% to 90% B gradient (Buffer A 0.1% TFA in H2O, Buffer B 0.1% TFA in ACN). Mass spectra were obtained for secondary validation of the reaction products using an API® 3500 triple quadrupole mass spectrometer. Chromatograms were offset on both the X and Y axes (by 0.5 minutes and 0.1 A214, respectively) for greater visibility.

## alpha-1-antitrypsin [full-length A1AT]
[1]
  NET formation triggered by LPS: did not inhibit NET formation

## SIPPEVKFNKPFVFLMIEQNTKSPLFMGKWNPTQK (listed as Homo sapiens) [HTRA1-CF, synthesized peptide generated by cleavage of A1AT by HTRA1]
[1]; agonist not stated
  NET formation (FIG. 14): inhibits NET formation

## recombinant A1AT: active full-length recombinant A1AT from SIGMA-ALDRICH
[1]
  NET formation triggered by LPS: did not inhibit NET formation

## LNTNKTKMGVQFPKMPFFKQIPVNSLEFV (Scrambled Peptide Control) [nNIF-SCR, scrambled control peptide of nNIF, reference compound]
[1]
  NET formation triggered by LPS: does not

## PMVSVAMMLSENIFKLPEVKSVPTEFFPKFINMKLLPFQI (Scrambled Peptide Control) [A1ATm^358-SCR, scrambled A1ATm^358, reference compound]
[1]
  NET formation triggered by LPS: not

## NC(=O)[C@H](CCCN=C(N)CCl)NC(=O)c1ccccc1 [Cl-amidine, reference compound]
[2]
  nuclear decondensation (number of decondensed nuclei): blocked nuclear decondensation
[3]
  nuclear histone H3 citrullination: inhibited

## MFLEAIPMSIPPEVKFNKPFVFLMIEQNTKSPLFMLKVVS (listed as Homo sapiens) [A1ATm^358]
[1]
  NET formation triggered by LPS: inhibits NET formation, although with lesser potency than nNIF; also recorded: concentration-dependent pattern of inhibition
[1]; initial comparison of NRPs
  relative inhibition of NETosis (order of potency): nNIF ≈CRISPP>A1ATm^358
Recombinant PAD4
  order of potency of inhibition of PAD4: nNIF ≈CRISPP>A1ATm^358

## DNase [reference compound]
previously-formed NETs
  degradation or dismantling of previously-formed NETs: dismantled

## CC(C)(C)C(=O)Oc1ccc(S(=O)(=O)Nc2ccccc2C(=O)NCC(=O)O)cc1 [sivelestat, reference compound]
[2]
  nuclear decondensation (number of decondensed nuclei): blocks nuclear decondensation
Neutrophil elastase (NE)
  NE activity (substrate cleavage): inhibited but not eliminated

Source: US10857201B2, “NNIF and nNIF-related peptides and related methods” (UNIVERSITY OF UTAH RESEARCH FOUNDATION, priority 2016, dated 2020)
